Assay results reported in patent publication US12122778B2, “Activating pyruvate kinase R” (Novo Nordisk Health Care AG, priority 2018, dated 2024).

Experiments:
PKR(G332S) = PKR(G332S) (Homo sapiens, UniProt P30613, G332S); experiment: Luminescence Biochemical Assay (Kinase Glo Plus), PKR G332S mutant; conditions: with FBP; for activation at 1.54 µM: 1.54 μM compound, read-out: AC50 LUM KGP FBP % Fold@1.54 μM mean; for AC50: read-out: AC50 LUM KGP FBP AC50 μM gmean (column A); for Emax: read-out: AC50 LUM KGP FBP MAX % FOLD mean
Chain of PKR(G332S) (P30613 whole entry G332S): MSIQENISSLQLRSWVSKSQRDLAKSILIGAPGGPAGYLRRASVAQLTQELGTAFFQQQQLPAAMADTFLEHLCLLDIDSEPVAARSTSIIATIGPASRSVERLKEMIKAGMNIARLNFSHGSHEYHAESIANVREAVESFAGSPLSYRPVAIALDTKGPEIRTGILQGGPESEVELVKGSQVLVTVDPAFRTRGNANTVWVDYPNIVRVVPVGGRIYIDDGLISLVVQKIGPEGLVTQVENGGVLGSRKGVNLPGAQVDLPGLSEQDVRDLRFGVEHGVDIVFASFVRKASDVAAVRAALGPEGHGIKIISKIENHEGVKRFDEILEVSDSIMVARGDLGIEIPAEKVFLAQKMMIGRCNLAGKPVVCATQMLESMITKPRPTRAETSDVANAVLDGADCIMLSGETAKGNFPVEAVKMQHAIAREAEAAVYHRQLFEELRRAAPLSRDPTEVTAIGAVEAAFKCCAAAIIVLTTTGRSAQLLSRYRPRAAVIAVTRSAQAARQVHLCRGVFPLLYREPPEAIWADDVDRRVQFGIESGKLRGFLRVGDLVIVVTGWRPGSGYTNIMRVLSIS

PKR(R510Q) = PKR(R510Q) (Homo sapiens, UniProt P30613, R510Q); experiment: Luminescence Biochemical Assay (Kinase Glo Plus), PKR R510Q mutant; conditions: without FBP; for activation at 1.54 µM: 1.54 μM compound, read-out: AC50 LUM KGP woFBP % Fold@1.54 μM mean; for AC50: read-out: AC50 LUM KGP woFBP AC50 μM gmean; for Emax: read-out: AC50 LUM KGP woFBP MAX % FOLD mean
Chain of PKR(R510Q) (P30613 whole entry R510Q): as the sequence (P30613 whole entry G332S) above, with S332G, R510Q counted along it

PKR(wt) = PKR(wt) (Homo sapiens, UniProt P30613); experiment: Luminescence Biochemical Assay (Kinase Glo Plus), wild type PKR; conditions: without FBP; for activation at 1.54 µM: 1.54 μM compound, read-out: AC50 LUM KGP woFBP % Fold@1.54 μM mean; for AC50: read-out: AC50 LUM KGP woFBP AC50 μM gmean; for Emax: read-out: AC50 LUM KGP woFBP MAX % FOLD mean
Chain of PKR(wt) (P30613 whole entry): as the sequence (P30613 whole entry G332S) above, with S332G counted along it

activation at 1.54 µM (PKR(G332S)) | AC50 (PKR(G332S)) | Emax (PKR(G332S)) | activation at 1.54 µM (PKR(R510Q)) | AC50 (PKR(R510Q)) | Emax (PKR(R510Q)) | activation at 1.54 µM (PKR(wt)) | AC50 (PKR(wt)) | Emax (PKR(wt)) | SMILES
75 to 250% | ≤ 0.1 µM | 75 to 250% | 250 to 50000% | ≤ 0.1 µM | 250 to 500% | 250 to 50000% | 0.1 to 1 µM | 250 to 500% | O=C(C(F)c1ccccc1)N1CC2=C(C1)CN(S(=O)(=O)c1ccc(OC(F)F)cc1)C2 (stereo not drawn) [Example 18-24, 1-{5-[4-(Difluoromethoxy)benzenesulfonyl]-1H,2H,3H,4H,5H,6H-pyrrolo[3,4-c]pyrrol-2-yl}-2-fluoro-2-phenylethan-1-one]
75 to 250% | ≤ 0.1 µM | 75 to 250% | 250 to 50000% | ≤ 0.1 µM | 250 to 500% | 250 to 50000% | ≤ 0.1 µM | 250 to 500% | O=C(N1CC2=C(C1)CN(S(=O)(=O)c1ccc(OC(F)F)cc1)C2)C(F)(F)c1ccccc1 [Example 18-25, 1-(5-((4-(Difluoromethoxy)phenyl)sulfonyl)-3,4,5,6-tetrahydropyrrolo[3,4-c]pyrrol-2(1H)-yl)-2,2-difluoro-2-phenylethan-1-one]
75 to 250% | ≤ 0.1 µM | 75 to 250% | 250 to 50000% | 0.1 to 1 µM | 250 to 500% | 250 to 50000% | 0.1 to 1 µM | 250 to 500% | O=C(Cc1cccnc1)N1CC2=C(C1)CN(S(=O)(=O)c1ccc(OC(F)F)cc1)C2 [Example 18-26, 1-{5-[4-(Difluoromethoxy)benzenesulfonyl]-1H,2H,3H,4H,5H,6H-pyrrolo[3,4-c]pyrrol-2-yl}-2-(pyridin-3-yl)ethan-1-one]
75 to 250% | 1 to 40 µM | 75 to 250% | 75 to 250% | 1 to 40 µM | 75 to 250% | 75 to 250% | 1 to 40 µM | 75 to 250% | O=C(Cc1ccc[nH]1)N1CC2=C(C1)CN(S(=O)(=O)c1ccc(OC(F)F)cc1)C2 [Example 18-27, 1-{5-[4-(Difluoromethoxy)benzenesulfonyl]-1H,2H,3H,4H,5H,6H-pyrrolo[3,4-c]pyrrol-2-yl}-2-(1H-pyrrol-2-yl)ethan-1-one]
75 to 250% | 0.1 to 1 µM | 75 to 250% | 250 to 50000% | 1 to 40 µM | 250 to 500% | 250 to 50000% | 1 to 40 µM | 250 to 500% | O=C(Cc1ncccn1)N1CC2=C(C1)CN(S(=O)(=O)c1ccc(OC(F)F)cc1)C2 [Example 18-28, 1-{5-[4-(Difluoromethoxy)benzenesulfonyl]-1H,2H,3H,4H,5H,6H-pyrrolo[3,4-c]pyrrol-2-yl}-2-(pyrimidin-2-yl)ethan-1-one]
75 to 250% | ≤ 0.1 µM | 75 to 250% | 75 to 250% | 1 to 40 µM | 250 to 500% | 75 to 250% | 1 to 40 µM | 250 to 500% | O=C(Cc1cnccn1)N1CC2=C(C1)CN(S(=O)(=O)c1ccc(OC(F)F)cc1)C2 [Example 18-29, 1-{5-[4-(Difluoromethoxy)benzenesulfonyl]-1H,2H,3H,4H,5H,6H-pyrrolo[3,4-c]pyrrol-2-yl}-2-(pyrazin-2-yl)ethan-1-one]
75 to 250% | ≤ 0.1 µM | 75 to 250% | 250 to 50000% | 0.1 to 1 µM | 250 to 500% | 250 to 50000% | 0.1 to 1 µM | 250 to 500% | Cc1ccc(CC(=O)N2CC3=C(C2)CN(S(=O)(=O)c2ccc(OC(F)F)cc2)C3)cn1 [Example 18-30, 1-{5-[4-(Difluoromethoxy)benzenesulfonyl]-1H,2H,3H,4H,5H,6H-pyrrolo[3,4-c]pyrrol-2-yl}-2-(6-methylpyridin-3-yl)ethan-1-one]
75 to 250% | ≤ 0.1 µM | 75 to 250% | 250 to 50000% | ≤ 0.1 µM | 250 to 500% | 250 to 50000% | ≤ 0.1 µM | 250 to 500% | O=C([C@H](O)c1ccc(F)cc1)N1CC2=C(C1)CN(S(=O)(=O)c1ccc(OC(F)F)cc1)C2 [Example 18-31, (2R)-1-{5-[4-(difluoromethoxy)benzenesulfonyl]-1H,2H,3H,4H,5H,6H-pyrrolo[3,4-c]pyrrol-2-yl}-2-(4-fluorophenyl)-2-hydroxyethan-1-one]

Further lines, the compound ahead of its results:

SMILES | activation at 1.54 µM (PKR(G332S)) | AC50 (PKR(G332S)) | Emax (PKR(G332S)) | activation at 1.54 µM (PKR(R510Q)) | AC50 (PKR(R510Q)) | Emax (PKR(R510Q)) | activation at 1.54 µM (PKR(wt)) | AC50 (PKR(wt)) | Emax (PKR(wt))
CN1CCOc2ccc(S(=O)(=O)N3CC4=C(CN(C(=O)[C@H]5CCCO5)C4)C3)cc21 [Example 18-2, 4-Methyl-6-({5-[(2R)-oxolane-2-carbonyl]-1H,2H,3H,4H,5H,6H-pyrrolo[3,4-c]pyrrol-2-yl}sulfonyl)-3,4-dihydro-2H-1,4-benzoxazine] | 75 to 250% | 1 to 40 µM | 75 to 250% | 75 to 250% | 1 to 40 µM | 75 to 250% | 75 to 250% | 0.1 to 1 µM | 75 to 250%
CC(C)Oc1ccc(S(=O)(=O)N2CC3=C(CN(C(=O)[C@H](O)c4ccccc4)C3)C2)cc1 [Example 18-12, (2R)-2-hydroxy-2-phenyl-1-{5-[4-(propan-2-yloxy)benzenesulfonyl]-1H,2H,3H,4H,5H,6H-pyrrolo[3,4-c]pyrrol-2-yl}ethan-1-one] | 75 to 250% | 0.1 to 1 µM | 75 to 250% | 75 to 250% | 1 to 40 µM | 250 to 500% | 75 to 250% | 0.1 to 1 µM | 75 to 250%
O=C([C@H](O)c1ccccc1)N1CC2=C(C1)CN(S(=O)(=O)c1ccc(OC(F)F)cc1)C2 [Example 18-13, (2R)-1-{5-[4-(difluoromethoxy)benzenesulfonyl]-1H,2H,3H,4H,5H,6H-pyrrolo[3,4-c]pyrrol-2-yl}-2-hydroxy-2-phenylethan-1-one] | 75 to 250% | ≤ 0.1 µM | 75 to 250% | 250 to 50000% | ≤ 0.1 µM | 250 to 500% | 250 to 50000% | ≤ 0.1 µM | 250 to 500%
O=C([C@H](O)c1ccccc1)N1CC2=C(C1)CN(S(=O)(=O)c1cccc(OC(F)F)c1)C2 [Example 18-15, (2R)-1-{5-[3-(difluoromethoxy)benzene-sulfonyl]-1H,2H,3H,4H,5H,6H-pyrrolo[3,4-c]pyrrol-2-yl}-2-hydroxy-2-phenylethan-1-one] | 75 to 250% | ≤ 0.1 µM | 75 to 250% | 250 to 50000% | ≤ 0.1 µM | 250 to 500% | 75 to 250% | ≤ 0.1 µM | 75 to 250%
O=C(Cn1cnnn1)N1CC2=C(C1)CN(S(=O)(=O)c1ccc(OC(F)F)cc1)C2 [Example 18-19, 1-(5-((4-(difluoromethoxy)phenyl)sulfonyl)-3,4,5,6-tetrahydropyrrolo[3,4-c]pyrrol-2(1H)-yl)-2-(1H-tetrazol-1-yl)ethan-1-one] | 75 to 250% | ≤ 0.1 µM | 75 to 250% | 250 to 50000% | 0.1 to 1 µM | 250 to 500% | 250 to 50000% | 0.1 to 1 µM | 250 to 500%
Cc1nc(CC(=O)N2CC3=C(C2)CN(S(=O)(=O)c2ccc(OC(F)F)cc2)C3)cs1 [Example 18-20, 1-{5-[4-(Difluoromethoxy)benzene-sulfonyl]-1H,2H,3H,4H,5H,6H-pyrrolo[3,4-c]pyrrol-2-yl}-2-(2-methyl-1,3-thiazol-4-yl)ethan-1-one] | 75 to 250% | 1 to 40 µM | 75 to 250% | 75 to 250% | 1 to 40 µM | 250 to 500% | 250 to 50000% | 0.1 to 1 µM | 250 to 500%
O=C(Cn1cccn1)N1CC2=C(C1)CN(S(=O)(=O)c1ccc(OC(F)F)cc1)C2 [Example 18-21, 1-{5-[4-(Difluoromethoxy)benzenesulfonyl]-1H,2H,3H,4H,5H,6H-pyrrolo[3,4-c]pyrrol-2-yl}-2-(1H-pyrazol-1-yl)ethan-1-one] | 75 to 250% | 0.1 to 1 µM | 75 to 250% | 75 to 250% | 1 to 40 µM | 250 to 500% | 75 to 250% | 1 to 40 µM | 250 to 500%
O=C(C(O)c1cccc(F)c1)N1CC2=C(C1)CN(S(=O)(=O)c1ccc(OC(F)F)cc1)C2 (stereo not drawn) [Example 18-22, 1-{5-[4-(Difluoromethoxy)benzenesulfonyl]-1H,2H,3H,4H,5H,6H-pyrrolo[3,4-c]pyrrol-2-yl}-2-(3-fluorophenyl)-2-hydroxyethan-1-one] | 75 to 250% | ≤ 0.1 µM | 75 to 250% | 250 to 50000% | 0.1 to 1 µM | 250 to 500% | 75 to 250% | 0.1 to 1 µM | 250 to 500%
O=C(C(O)c1ccc(F)c(F)c1)N1CC2=C(C1)CN(S(=O)(=O)c1ccc(OC(F)F)cc1)C2 (stereo not drawn) [Example 18-23, 1-{5-[4-(Difluoromethoxy)benzenesulfonyl]-1H,2H,3H,4H,5H,6H-pyrrolo[3,4-c]pyrrol-2-yl}-2-(3,4-difluorophenyl)-2-hydroxyethan-1-one] | 75 to 250% | 0.1 to 1 µM | 75 to 250% | 250 to 50000% | 1 to 40 µM | 250 to 500% | 75 to 250% | 0.1 to 1 µM | 250 to 500%
